Legend:
Rabbit corneas = test: Ex Vivo Eye Irritation Test (EVEIT), corneal healing
Procedure: A comparison in respect of corneal healing process was conducted for a composition comprising molecular iodine (0.25 mg/ml; 250 ppm) in 1-perfluorohexyl-octane (Composition B) with vehicle 1-perfluorohexyl-octane (Composition A) and hyaluronic acid (HYLO-COMOD®) as a reference and 0.01% BAC (benzalkonium chloride) as a control using an Ex Vivo Eye Irritation Test (EVEIT), similar to as described in M. Frentz et al, Altern. to Lab. Anim., 2008 (36) p 25-32; and N. Schrage et al, Graefes Arch Clin Exp Ophthalmol 2012 (250), 1330-1340).
Method. […]
After 12 h of stabilization in the culture chamber, the corneas were evaluated by microscopy and corneas with intact epithelium and without opacities were selected. […] All defects were monitored by fluorescein sodium staining (0.17% aq. solution) and microscopy.
The test substances were administered one hour after induction of the corneal erosion and were applied six times daily onto the apex of the corneas (30-50 μL every four hours). […] All defects were monitored by fluorescein sodium stains (0.17% aq. solution) with yellow green fluorescence indicating the areas of epithelial defects. Erosion sizes were determined using a software tool of the microscope (DISKUS). […] To monitor the metabolic activity of the cornea, glucose and lactate concentrations were photometrically quantified in the outflow medium from the artificial anterior chambers.

[1] = Concentration of molecular iodine dissolved in the vehicle (saturated solutions); type: physicochemical
Procedure: Molecular iodine (I2) solutions in the semifluorinated alkane F4H5 at target concentrations of 0.01 mg/ml, 0.05 mg/ml, 0.1 mg/mL, 0.5 mg/mL, 0.55 mg/ml and 0.94 mg/mL were prepared. Molecular iodine was weighed into clear glass vials, followed by addition of the calculated volume of semifluorinated alkane F4H5. The compositions were stirred for 2 hours at room temperatures. The compositions provided clear pink solutions, ranging from strong pink/violet color at high concentrations (0.55 mg/ml) to very dilute pinkish colour at lower concentrations (0.01 mg/ml).
The 0.94 mg/ml solution was prepared by adding additional F4H5 to a composition comprising 1.0 mg/mL molecular iodine until all remaining molecular iodine particles were dissolved, providing a clear solution of deep pink/violet colour.
Molecular iodine (I2) solutions in the semifluorinated alkane F6H8 at target concentrations of 0.1 mg/mL, 0.5 mg/mL and 1.0 mg/mL were prepared. Molecular iodine was weighed into clear glass vials, followed by addition of the calculated volume of semifluorinated alkane F6H8. The compositions were stirred for 2 hours at room temperature
Additional F6H8 was added to the target 1.0 mg/mL composition until all remaining molecular iodine particles were dissolved, providing a clear solution, with a concentration of about 0.88 mg/mL. The solution is a deep pink/violet in colour.
Solutions with higher I2 concentrations may be prepared with the addition of ethanol (non-absolute or alternatively absolute). F4H5/EtOH-Concentrations of about 20 mg/mL of I2 in F4H5 are achieved when ethanol is added to an amount of 38% (w/w), relative to the weight of the vehicle The resulting composition is a red-brown coloured solution.
F6H8/EtOH-Solutions with higher I2 concentrations may be prepared with the addition of ethanol (non-absolute or alternatively absolute). Concentrations of about 20 mg/mL of I2 in F6H8 are achieved when ethanol is added to an amount of 38% (w/w), relative to the weight of the vehicle.
Saturated iodine solutions as prepared in Example 1 above of I2 in F4H5 (0.94 mg/mL) and F6H8 (0.88 mg/mL) were stored standing under ambient atmosphere and temperature conditions under a capped clear glass vial for 52 weeks without protection from light.

Compound: benzalkonium chloride [0.01% BAC]
- corneal healing process after induction of corneal erosion (in words) (Rabbit corneas): progressive increase of the induced epithelial lesions

Compound: II [molecular iodine, Molecular iodine]
- concentration at which all molecular iodine particles were dissolved (saturated solution) ([1]; in F4H5, room temperature): 940 µg/mL
- I2 concentration achieved ([1]; in F4H5 with ethanol 38% (w/w) of the vehicle): about 20 mg/mL
- concentration at which all molecular iodine particles were dissolved (saturated solution) ([1]; in F6H8, room temperature): about 0.88 mg/mL
- I2 concentration achieved ([1]; in F6H8 with ethanol 38% (w/w) of the vehicle): about 20 mg/mL

From patent US12150955B2, “Iodine compositions” (DERMALIQ THERAPEUTICS, INC., priority 2017, dated 2024)
